Measurements published in patent US10730880B2, “4,6-substituted-pyrazolo[1,5-a]pyrazines as Janus kinase inhibitors” (Array BioPharma Inc., priority 2014, dated 2020).
Like-named read-outs stand apart in the source and are kept apart here.

How the values were obtained:
Format in all cases: biochemical
JAK2 = JAK2 (Homo sapiens (Human), UniProt O60674); experiment: JAK2 Inhibition Assay (Omnia kinase fluorescence peptide substrate assay)
Text: (§1) The assays described in Examples A, B, C and D for the determination of Tyk2, JAK1, JAK2 and JAK3 kinase activity, respectively, utilized the Omnia® Kinase fluorescence peptide substrate-based technology (Invitrogen). The specific components of the assay mixture are described in Examples A, B, C and D. In these assays, Mg^2+ is chelated upon phosphorylation of the Omnia peptide by the kinase to form a bridge between the chelation-enhanced fluorophore Sox and the phosphate, resulting in an increase in fluorescence emission at 485 nm when excited at […]. The reactions were therefore read at excitation 360 nm and emission was measured at 485 nm every 50 seconds for 45 minutes using a PerkinElmer EnVision Multilabel Plate Reader.
(§2) The final buffer conditions for Tyk2, JAK1, JAK2, and JAK3 assays were as follows: 25 mM HEPES, pH 7.4, 10 mM MgCl2, 0.01% Triton X-100 and 1 mM DTT.
(§3) Two-μL aliquots of these were transferred to a fresh plate for a ten-fold intermediate dilution with assay buffer. Five-μL aliquots of the diluted compounds were then transferred to 20-μL of assay mixtures described in Examples A, B, C and D for a final concentration of DMSO of 2%. […] For each plate, percent of control (POC) values were calculated for each well according to the following equation:
(§4) where Xmax=Average Uninhibited Controls • Xmin=Average Background IC50's were estimated from the POC's using a standard 4-parameter logistic model:
(§5) where A=Minimum Y (Bottom Asymptote) • B=Maximum Y (Top Asymptote) • C=EC50 • D=Slope Factor • X=Compound Concentration (nM) • Y=POC
(§6) The IC50 is defined as the concentration of inhibitor at which the POC equals 50 for the fitted curve.
(§7) Compounds of Formula I were screened for their ability to inhibit JAK2 using the general enzyme inhibition assay method, in which the assay mixture contained 1 mM ATP, 10 μM Omnia® Y7 peptide (Catalog # IVGN KNZ3071C, Invitrogen Corporation, Carlsbad, Calif.) and 4 nM JAK2 in a total volume of 25 μL. JAK2 was purchased from Invitrogen Corporation, Carlsbad, Calif. (catalog # IVGN PV4288).

Human Tyk2 kinase domain = Human Tyk2 kinase domain (Homo sapiens (Human), UniProt P29597); experiment: Tyk2 Inhibition Assay (Omnia kinase fluorescence peptide substrate assay)
Text: as §1, §2, §3, §4, §5, §6
Compounds of Formula I were screened for their ability to inhibit Tyk2 using the general enzyme inhibition assay method, in which the assay mixture contained 1 mM ATP, 8 μM Omnia® Y12 peptide (Catalog # IVGN KPZ3121C; Invitrogen Corporation, Carlsbad, Calif.) and 1 nM Tyk2 in a total volume of 25 μL. Human Tyk2 kinase domain, comprising amino acids 886 to 1187 with 10 additional histidine residues (histidine tag) on the carboxy terminus, was expressed and purified from bacculovirus in-house at Array BioPharma Inc. (Boulder, Colo.). The histidine tag was cleaved after purification using standard conditions.

JAK3 = JAK3 (Homo sapiens (Human), UniProt P52333); experiment: JAK3 Inhibition Assay (Omnia kinase fluorescence peptide substrate assay); details: read-out: JAK3 Enzyme IC50 1 mM ATP, averaged IC50 ranges
Text: as §1, §2
as §3, with “equation: […]” for “equation:”

JAK1 = JAK1 (Homo sapiens (Human), UniProt P23458); experiment: JAK1 Inhibition Assay (Omnia kinase fluorescence peptide substrate assay)
Text: as §1, §2, §3, §4, §5, §6
as §7, with “JAK1” for “JAK2”, “8” for “10”, “Y12” for “Y7”, “KPZ3121C;” for “KNZ3071C,”, “12.5” for “4”, “PV4775).” for “PV4288).”

[1] = read-out: JAK2 Enzyme IC50 1 mM ATP, 1 mM ATP, averaged IC50 ranges
[2] = read-out: TYK2 Enzyme IC50 1 mM ATP, 1 mM ATP, averaged IC50 ranges
[3] = JAK1 Enzyme IC50 1 mM ATP, averaged IC50 ranges

Sequence of JAK2 (O60674 whole entry): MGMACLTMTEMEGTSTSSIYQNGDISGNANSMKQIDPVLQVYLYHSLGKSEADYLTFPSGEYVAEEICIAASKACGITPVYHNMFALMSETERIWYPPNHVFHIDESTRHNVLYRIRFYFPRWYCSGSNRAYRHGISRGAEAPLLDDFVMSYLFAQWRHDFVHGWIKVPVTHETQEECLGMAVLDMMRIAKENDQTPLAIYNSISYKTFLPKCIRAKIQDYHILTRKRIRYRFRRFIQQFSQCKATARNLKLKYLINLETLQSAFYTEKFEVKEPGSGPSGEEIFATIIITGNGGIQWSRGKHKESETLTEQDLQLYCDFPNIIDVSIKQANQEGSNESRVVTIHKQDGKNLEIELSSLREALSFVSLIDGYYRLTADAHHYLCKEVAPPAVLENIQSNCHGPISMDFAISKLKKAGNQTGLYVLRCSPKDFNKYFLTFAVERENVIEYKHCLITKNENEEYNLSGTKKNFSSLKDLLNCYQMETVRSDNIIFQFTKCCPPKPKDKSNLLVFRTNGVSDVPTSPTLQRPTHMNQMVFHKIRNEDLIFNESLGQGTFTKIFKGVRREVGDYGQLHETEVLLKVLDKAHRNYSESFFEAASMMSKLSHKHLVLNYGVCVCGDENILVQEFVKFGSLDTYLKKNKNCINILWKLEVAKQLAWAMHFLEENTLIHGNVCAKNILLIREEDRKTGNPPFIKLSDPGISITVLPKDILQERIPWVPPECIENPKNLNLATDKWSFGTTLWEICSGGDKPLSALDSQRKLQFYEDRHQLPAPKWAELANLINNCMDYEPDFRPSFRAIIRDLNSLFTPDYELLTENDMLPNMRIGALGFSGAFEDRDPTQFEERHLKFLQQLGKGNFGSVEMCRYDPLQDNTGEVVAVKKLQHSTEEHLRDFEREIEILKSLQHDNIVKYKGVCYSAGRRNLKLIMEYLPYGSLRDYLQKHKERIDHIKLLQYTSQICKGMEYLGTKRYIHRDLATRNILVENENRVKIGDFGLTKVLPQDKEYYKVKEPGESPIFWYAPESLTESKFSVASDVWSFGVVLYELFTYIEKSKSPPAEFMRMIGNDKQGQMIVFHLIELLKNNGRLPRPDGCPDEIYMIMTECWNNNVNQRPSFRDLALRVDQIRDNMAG
Sequence of Human Tyk2 kinase domain (P29597 886-1187): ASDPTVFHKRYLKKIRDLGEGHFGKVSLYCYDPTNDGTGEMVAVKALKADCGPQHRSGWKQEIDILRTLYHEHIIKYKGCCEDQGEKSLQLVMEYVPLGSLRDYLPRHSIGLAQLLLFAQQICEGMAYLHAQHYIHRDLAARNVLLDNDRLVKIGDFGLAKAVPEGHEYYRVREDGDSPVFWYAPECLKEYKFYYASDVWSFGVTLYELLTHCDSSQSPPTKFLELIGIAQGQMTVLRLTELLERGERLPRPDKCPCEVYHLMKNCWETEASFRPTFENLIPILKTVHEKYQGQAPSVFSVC
Sequence of JAK1 (P23458 whole entry): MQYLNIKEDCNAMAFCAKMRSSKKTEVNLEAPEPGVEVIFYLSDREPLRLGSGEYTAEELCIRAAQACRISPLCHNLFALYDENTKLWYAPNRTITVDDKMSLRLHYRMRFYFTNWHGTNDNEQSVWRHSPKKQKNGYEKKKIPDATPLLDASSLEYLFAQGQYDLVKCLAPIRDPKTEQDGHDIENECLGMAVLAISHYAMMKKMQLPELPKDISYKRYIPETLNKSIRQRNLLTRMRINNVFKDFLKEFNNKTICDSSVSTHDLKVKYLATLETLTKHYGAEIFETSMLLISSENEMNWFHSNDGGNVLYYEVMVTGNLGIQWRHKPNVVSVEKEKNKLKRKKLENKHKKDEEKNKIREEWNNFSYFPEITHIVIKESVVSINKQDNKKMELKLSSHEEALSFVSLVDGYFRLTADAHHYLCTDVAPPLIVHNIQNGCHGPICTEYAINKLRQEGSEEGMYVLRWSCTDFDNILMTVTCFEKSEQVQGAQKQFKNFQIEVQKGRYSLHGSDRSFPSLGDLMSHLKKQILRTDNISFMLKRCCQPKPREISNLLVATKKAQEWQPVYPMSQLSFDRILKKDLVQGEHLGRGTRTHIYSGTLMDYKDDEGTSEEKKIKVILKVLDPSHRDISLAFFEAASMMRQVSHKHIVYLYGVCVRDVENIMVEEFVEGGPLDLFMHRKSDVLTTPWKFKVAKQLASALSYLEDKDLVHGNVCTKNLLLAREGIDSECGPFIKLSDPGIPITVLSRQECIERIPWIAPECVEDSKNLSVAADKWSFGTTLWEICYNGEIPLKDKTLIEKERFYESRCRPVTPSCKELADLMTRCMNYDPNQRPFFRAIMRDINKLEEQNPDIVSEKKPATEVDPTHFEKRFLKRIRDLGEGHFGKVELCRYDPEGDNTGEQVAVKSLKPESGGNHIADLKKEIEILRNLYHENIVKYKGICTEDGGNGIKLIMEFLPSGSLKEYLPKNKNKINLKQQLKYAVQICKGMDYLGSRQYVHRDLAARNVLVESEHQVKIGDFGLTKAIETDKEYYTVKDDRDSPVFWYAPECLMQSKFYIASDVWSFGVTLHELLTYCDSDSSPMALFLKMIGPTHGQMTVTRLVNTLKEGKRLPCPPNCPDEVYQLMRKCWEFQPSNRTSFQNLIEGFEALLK
Sequence of JAK3 (P52333 whole entry): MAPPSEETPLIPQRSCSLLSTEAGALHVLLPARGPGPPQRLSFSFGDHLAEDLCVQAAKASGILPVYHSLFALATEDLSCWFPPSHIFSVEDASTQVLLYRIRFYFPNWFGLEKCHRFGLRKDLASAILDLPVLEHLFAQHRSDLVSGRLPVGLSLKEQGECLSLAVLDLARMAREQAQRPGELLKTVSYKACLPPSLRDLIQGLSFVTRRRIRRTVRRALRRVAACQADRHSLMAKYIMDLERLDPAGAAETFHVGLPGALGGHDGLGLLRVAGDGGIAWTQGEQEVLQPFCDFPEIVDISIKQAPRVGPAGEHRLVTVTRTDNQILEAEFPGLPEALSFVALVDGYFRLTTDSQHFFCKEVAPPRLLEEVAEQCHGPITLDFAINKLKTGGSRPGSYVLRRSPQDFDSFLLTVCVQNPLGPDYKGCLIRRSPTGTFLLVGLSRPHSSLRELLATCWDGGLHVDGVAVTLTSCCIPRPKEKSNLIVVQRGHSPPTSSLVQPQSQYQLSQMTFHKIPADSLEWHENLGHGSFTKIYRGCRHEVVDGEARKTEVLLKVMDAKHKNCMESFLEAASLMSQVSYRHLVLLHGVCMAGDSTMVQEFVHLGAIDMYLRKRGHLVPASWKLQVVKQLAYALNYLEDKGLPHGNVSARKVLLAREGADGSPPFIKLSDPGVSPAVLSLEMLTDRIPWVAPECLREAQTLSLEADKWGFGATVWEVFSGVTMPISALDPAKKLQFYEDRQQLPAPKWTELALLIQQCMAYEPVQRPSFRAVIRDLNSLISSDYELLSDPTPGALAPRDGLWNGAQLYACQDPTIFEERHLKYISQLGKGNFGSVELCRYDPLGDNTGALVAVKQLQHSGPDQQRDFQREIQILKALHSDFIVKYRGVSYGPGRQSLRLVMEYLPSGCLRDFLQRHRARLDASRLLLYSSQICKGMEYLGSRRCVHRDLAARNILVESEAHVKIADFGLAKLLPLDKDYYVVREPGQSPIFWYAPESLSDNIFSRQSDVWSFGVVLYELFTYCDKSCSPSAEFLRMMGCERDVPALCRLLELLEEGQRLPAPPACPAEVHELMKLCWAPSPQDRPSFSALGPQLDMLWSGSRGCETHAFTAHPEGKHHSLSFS

Structure (SMILES) | IC50 (JAK2; [1]) | IC50 (Human Tyk2 kinase domain; [2]) | further results
CC[C@H](C1CC1)n1cc(-c2nc(-c3cnn(C[C@@H](O)CO)c3)cn3nccc23)cn1 (single isomer, unassigned) [Example 213] | 10 to 100 nM |  | 
CCC(CC)n1cc(-c2nc(-c3cnn(C4CS(=O)(=O)C4)c3)cn3nccc23)cn1 [Example 13, 3-(4-(4-(1-(pentan-3-yl)-1H-pyrazol-4-yl)pyrazolo[1,5-a]pyrazin-6-yl)-1H-pyrazol-1-yl)thietane 1,1-dioxide] | < 10 nM |  | 
CCC(CC)n1cc(-c2nc(-c3cnn(C4CCN(C(C)=O)CC4)c3)cn3nccc23)cn1 [Example 31, 1-(4-(4-(4-(1-(pentan-3-yl)-1H-pyrazol-4-yl)pyrazolo[1,5-a]pyrazin-6-yl)-1H-pyrazol-1-yl)piperidin-1-yl)ethanone] | < 10 nM |  | 
CCC(CC)n1cc(-c2nc(-c3cnn(C4CCN(S(C)(=O)=O)CC4)c3)cn3nccc23)cn1 [Example 32, 6-(1-(1-(methylsulfonyl)piperidin-4-yl)-1H-pyrazol-4-yl)-4-(1-(pentan-3-yL)-1H-pyrazol-4-yl)pyrazolo[1,5-a]pyrazine] | < 10 nM | < 10 nM | 
CCC(CC)n1cc(-c2nc(-c3cnn(C4CCN(C(=O)COC)CC4)c3)cn3nccc23)cn1 [Example 33, 2-methoxy-1-(4-(4-(4-(1-(pentan-3-yl)-1H-pyrazol-4-yl)pyrazolo[1,5-a]pyrazin-6-yl)-1H-pyrazol-1-yl)piperidin-1-yl)ethanone] | < 10 nM | < 10 nM | 
CCC(CC)n1cc(-c2nc(-c3cnn(C4CCN(C(=O)NC)CC4)c3)cn3nccc23)cn1 [Example 34, N-methyl-4-(4-(4-(1-(pentan-3-yl)-1H-pyrazol-4-yl)pyrazolo[1,5-a]pyrazin-6-yl)-1H-pyrazol-1-yl)piperidine-1-carboxamide] | < 10 nM |  | 
CCC(CC)n1cc(-c2nc(-c3cnn(C4CCN(C(=O)CN)CC4)c3)cn3nccc23)cn1 [Example 36, 2-amino-1-(4-(4-(4-(1-(pentan-3-yl)-1H-pyrazol-4-yl)pyrazolo[1,5-a]pyrazin-6-yl)-1H-pyrazol-1-yl)piperidin-1-yl)ethanone] | < 10 nM | < 10 nM | 
CC[C@@H](C)n1cc(-c2nc(-c3cnn(C(CO)CO)c3)cn3nccc23)cn1 [Example 85, (R)-2-(4-(4-(1-(sec-butyl)-1H-pyrazol-4-yl)pyrazolo[1,5-a]pyrazin-6-yl)-1H-pyrazol-1-yl)propane-1,3-diol] | < 10 nM |  | 
CCC[C@H](C)n1cc(-c2nc(-c3cnn(C[C@H](O)CO)c3)cn3nccc23)cn1 [Example 86, (S)-3-(4-(4-(1-((S)-pentan-2-yl)-1H-pyrazol-4-yl)pyrazolo[1,5-a]pyrazin-6-yl)-1H-pyrazol-1-yl)propane-1,2-diol] |  | < 10 nM | 
CC1(C)CCC[C@@H]1n1cc(-c2nc(-c3cnn(C[C@@H](O)CO)c3)cn3nccc23)cn1 [Example 95, (R)-3-(4-(4-(1-((S)-2,2-dimethylcyclopentyl)-1H-pyrazol-4-yl)pyrazolo[1,5-a]pyrazin-6-yl)-1H-pyrazol-1-yl)propane-1,2-diol] | 1000 to 10000 nM |  | 
CCC(CC)n1cc(-c2nc(-c3cnn([C@H]4CC[C@H](O)CC4)c3)cn3nccc23)cn1 [Example 118, trans-4-(4-(4-(1-(pentan-3-yl)-1H-pyrazol-4-yl)pyrazolo[1,5-a]pyrazin-6-yl)-1H-pyrazol-1-yl)cyclohexanol] |  |  | IC50 (JAK3): 1000 to 10000 nM
CCC(CC)n1cc(-c2nc(-c3cnn([C@H]4CC[C@@H](O)CC4)c3)cn3nccc23)cn1 [Example 121, cis-4-(4-(4-(1-(pentan-3-yl)-1H-pyrazol-4-yl)pyrazolo[1,5-a]pyrazin-6-yl)-1H-pyrazol-1-yl)cyclohexanol] |  |  | IC50 (JAK3): 1000 to 10000 nM
CCC(CC)n1cc(-c2nc(-c3cnn([C@@H]4C[C@@H](O)[C@@H](O)C4)c3)cn3nccc23)cn1 [Example 132, (1R,2S,4s)-4-(4-(4-(1-(pentan-3-yl)-1H-pyrazol-4-yl)pyrazolo[1,5-a]pyrazin-6-yl)-1H-pyrazol-1-yl)cyclopentane-1,2-diol] | 10 to 100 nM |  | IC50 (JAK1; read-out: JAK1 Enzyme IC50 1 mM ATP, averaged IC50 ranges): 100 to 1000 nM
CCC(CC)n1cc(-c2nc(-c3cnn(C4CC(C(N)=O)C4)c3)cn3nccc23)cn1 (centres unmarked) [Example 168, (1s,3s)-3-(4-(4-(1-(pentan-3-yl)-1H-pyrazol-4-yl)pyrazolo[1,5-a]pyrazin-6-yl)-1H-pyrazol-1-yl)cyclobutanecarboxamide] |  |  | IC50 (JAK1; [3]): 1000 to 10000 nM
CCC(CC)n1cc(-c2nc(-c3cnn(C4CN(C(=O)C(C)(C)O)C4)c3)cn3nccc23)cn1 [Example 176, 2-hydroxy-2-methyl-1-(3-(4-(4-(1-(pentan-3-yl)-1H-pyrazol-4-yl)pyrazolo[1,5-a]pyrazin-6-yl)-1H-pyrazol-1-yl)azetidin-1-yl)propan-1-one] |  | < 10 nM | 
CCC(CC)n1cc(-c2nc(-c3cnn(C4CN(C(=O)C5(O)CC5)C4)c3)cn3nccc23)cn1 [Example 177, (1-hydroxycyclopropyl)(3-(4-(4-(1-(pentan-3-yl)-1H-pyrazol-4-yl)pyrazolo[1,5-a]pyrazin-6-yl)-1H-pyrazol-1-yl)azetidin-1-yl)methanone] |  | < 10 nM | 
CCC(CC)n1cc(-c2nc(-c3cnn([C@@H]4CCC[C@@H]4O)c3)cn3nccc23)cn1 [Example 189, (1S,2R)-2-(4-(4-(1-(pentan-3-yl)-1H-pyrazol-4-yl)pyrazolo[1,5-a]pyrazin-6-yl)-1H-pyrazol-1-yl)cyclopentanol] |  |  | IC50 (Human Tyk2 kinase domain): 10 to 100 nM; IC50 (JAK1; [3]): 1000 to 10000 nM; IC50 (JAK2): 10 to 100 nM
